Target: vanilloid receptor 1 (VR1/TRPV1) (Homo sapiens (Human), UniProt Q8NER1)
Assay: FLIPR assay, Ca2+ influx in CHO K1 cells transfected with the human VR1 gene
Type: cell-based
Conditions: for compound-alone effect on Ca2+ influx (agonist / partial agonist): compound 5 μM, % activation compared with control capsaicin 10 μM; for Ki: displacement of capsaicin 100 nM, Ki from IC50 by Cheng-Prusoff equation, read-out: (f) Ki (human) [nM] Cap
Method: Furthermore, preference may be given to compounds according to the first aspect of the invention that cause a 50% displacement of capsaicin, which is present at a concentration of 100 nM, in a FLIPR assay with CHO K1 cells which were transfected with the human VR1 gene at a concentration of less than 2 000 nM, preferably less than 1 000 nM, particularly preferably less than 300 nM, most particularly preferably less than 100 nM, even more preferably less than 75 nM, additionally preferably less than 50 nM, most preferably less than 10 nM. In the process, the Ca^2+ influx is quantified in the FLIPR assay with the aid of a Ca^2+-sensitive dye (type Fluo-4, Molecular Probes Europe BV, Leiden, the Netherlands) in a fluorescent imaging plate reader (FLIPR, Molecular Devices, Sunnyvale, USA), as described hereinafter.
The FLIPR protocol consists of 2 substance additions during a kinetic measurement. First the compounds to be tested (5 μM) are pipetted onto the cells and the Ca^2+ influx is determined in comparison to the control (capsaicin 10 μM), providing the result as % activation and representing the compound-alone effect (calculation at peak signal related to baseline). […] After 5 min incubation, the Ca^2+ influx is related to an injection of 100 nM of capsaicin and thereby the antagonistic effect of the test compounds detected.
Desensitising agonists and antagonists lead to suppression of the Ca^2+ influx. The % inhibition is calculated compared to the maximum achievable inhibition with 10 μM of capsaicin. Triple analyses (n=3) are carried out and repeated in at least 3 independent experiments.
Starting from the percentage displacement caused by different concentrations of the compounds to be tested of general formula I, IC50 inhibitory concentrations which cause a 50-% displacement of capsaicin were calculated. Ki values for the test substances were obtained by conversion by means of the Cheng-Prusoff equation (Cheng, Prusoff; Biochem. Pharmacol. 22, 3099-3108, 1973).
Chinese hamster ovary cells (CHO K1 cells, European Collection of Cell Cultures (ECACC) United Kingdom) are stably transfected with the VR1 gene. For functional testing, these cells are plated out on poly-D-lysine-coated black 96-well plates having a clear base (BD Biosciences, Heidelberg, Germany) at a density of 25,000 cells/well. The cells are incubated overnight at 37° C. and 5% CO2 in a culture medium (Ham's F12 nutrient mixture, 10% by volume of FCS (foetal calf serum), 18 μg/ml of L-proline). The next day the cells are incubated with Fluo-4 (Fluo-4 2 μM, 0.01% by volume of Pluronic F127, Molecular Probes in HBSS (Hank's buffered saline solution), Gibco Invitrogen GmbH, Karlsruhe, Germany) for 30 min at 37° C. Subsequently, the plates are washed three times with HBSS buffer and after further incubation for 15 min at RT used for Ca^2+ measurement in a FLIPR assay. The Ca^2+-dependent fluorescence is measured before and after the addition of the substances to be tested (λex wavelength=488 nm, λem=540 nm). Quantification is carried out by measuring the highest fluorescence intensity (FC, fluorescence counts) over time.

vanilloid receptor 1 (VR1/TRPV1), sequence (Q8NER1 whole entry): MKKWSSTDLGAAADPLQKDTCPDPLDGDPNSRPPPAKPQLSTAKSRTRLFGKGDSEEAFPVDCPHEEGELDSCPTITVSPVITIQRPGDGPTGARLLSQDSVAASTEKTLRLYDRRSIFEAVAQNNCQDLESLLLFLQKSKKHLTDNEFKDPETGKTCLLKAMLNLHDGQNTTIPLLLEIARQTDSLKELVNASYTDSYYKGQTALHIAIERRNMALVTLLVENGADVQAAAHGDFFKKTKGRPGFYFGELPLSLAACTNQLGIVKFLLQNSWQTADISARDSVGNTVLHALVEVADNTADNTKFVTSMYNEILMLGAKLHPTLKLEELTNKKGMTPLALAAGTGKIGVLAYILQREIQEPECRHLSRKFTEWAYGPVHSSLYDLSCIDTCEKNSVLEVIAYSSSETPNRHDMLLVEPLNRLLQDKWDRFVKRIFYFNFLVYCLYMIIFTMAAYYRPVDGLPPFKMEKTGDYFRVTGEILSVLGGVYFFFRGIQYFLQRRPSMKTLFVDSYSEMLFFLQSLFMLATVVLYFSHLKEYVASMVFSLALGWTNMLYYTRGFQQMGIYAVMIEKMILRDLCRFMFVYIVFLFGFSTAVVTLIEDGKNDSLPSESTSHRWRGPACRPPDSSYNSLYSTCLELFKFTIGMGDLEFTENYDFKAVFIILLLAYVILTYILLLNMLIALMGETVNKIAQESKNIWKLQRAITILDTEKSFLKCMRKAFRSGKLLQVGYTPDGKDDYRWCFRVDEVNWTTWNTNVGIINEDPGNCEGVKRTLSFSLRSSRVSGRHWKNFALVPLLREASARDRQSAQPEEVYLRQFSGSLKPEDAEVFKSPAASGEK

| Compound | compound-alone effect on Ca2+ influx (agonist / partial agonist) | Ki |
| --- | --- | --- |
| CC(C)(C)c1nc(-c2cccc(Cl)c2)c(CNC(=O)Nc2cccc3c2CCC3)s1 [EX-51, 1-((2-(tert-butyl)-4-(3-chlorophenyl)thiazol-5-yl)methyl)-3-(2,3-dihydro-1H-inden-4-yl)urea] | pAG (A Ca^2+ influx of 10%-60% reveals a partial agonist (pAG)) | 2.9 nM |
| CC(C)(C)c1nc(-c2cccc(Cl)c2)c(CNC(=O)Nc2ccc3cnccc3c2)s1 [EX-52, 1-((2-(tert-butyl)-4-(3-chlorophenyl)thiazol-5-yl)methyl)-3-(isoquinolin-6-yl)urea] | AG (a Ca^2+ influx of >60% relates to a pure agonist (AG)) |  |
| CC(C)(C)c1nc(-c2cccc(Cl)c2)c(CNC(=O)Nc2cccc3ncccc23)s1 [EX-53, 1-((2-(tert-butyl)-4-(3-chlorophenyl)thiazol-5-yl)methyl)-3-(quinolin-5-yl)urea] | AG (a Ca^2+ influx of >60% relates to a pure agonist (AG)) |  |
| CC(C)(C)c1nc(-c2cccc(Cl)c2)c(CNC(=O)Nc2ccc3c(c2)OCCO3)s1 [EX-54, 1-((2-(tert-butyl)-4-(3-chlorophenyl)thiazol-5-yl)methyl)-3-(2,3-dihydrobenzo[b][1,4]dioxin-6-yl)urea] |  | 5.9 nM |
| CC(C)(C)c1nc(-c2cccc(Cl)c2)c(CNC(=O)Nc2ccc3c(c2)CCC3)s1 [EX-55, 1-((2-(tert-butyl)-4-(3-chlorophenyl)thiazol-5-yl)methyl)-3-(2,3-dihydro-1H-inden-5-yl)urea] |  | 12.3 nM |
| CC(C)(C)c1nc(-c2cccc(Cl)c2)c(CNC(=O)Nc2cccc3cnccc23)s1 [EX-56, 1-((2-(tert-butyl)-4-(3-chlorophenyl)thiazol-5-yl)methyl)-3-(isoquinolin-5-yl)urea] |  | 0.1 nM |
| CC(C)(C)c1nc(-c2cccc(Cl)c2)c(CNC(=O)Nc2ccc(CNS(C)(=O)=O)c(F)c2)s1 [EX-57, N-(4-(3-((2-(tert-butyl)-4-(3-chlorophenyl)thiazol-5-yl)methyl)ureido)-2-fluorobenzyl)methanesulfonamide] |  | 6.6 nM |
| Cc1cccc(-c2nc(C(C)(C)C)sc2CNC(=O)Nc2ccc(CNS(C)(=O)=O)c(F)c2)c1 [EX-58, N-(4-(3-((2-(tert-butyl)-4-(m-tolyl)thiazol-5-yl)methyl)ureido)-2-fluorobenzyl)methanesulfonamide] |  | 2.3 nM |
| CC(C)(C)c1nc(-c2cccc(Cl)c2)c(CNC(=O)Nc2ccc(CO)c(F)c2)s1 [EX-59, 1-((2-(tert-butyl)-4-(3-chlorophenyl)thiazol-5-yl)methyl)-3-(3-fluoro-4-(hydroxymethyl)phenyl)urea] | pAG (A Ca^2+ influx of 10%-60% reveals a partial agonist (pAG)) | 1.1 nM |
| Cc1cccc(-c2nc(C(C)(C)C)sc2CNC(=O)Nc2ccc(CO)c(F)c2)c1 [EX-60, 1-((2-(tert-butyl)-4-(m-tolyl)thiazol-5-yl)methyl)-3-(3-fluoro-4-(hydroxymethyl)phenyl)urea] | pAG (A Ca^2+ influx of 10%-60% reveals a partial agonist (pAG)) | 3.2 nM |
